This is an account of results in PMC6596218, “Anthranilic amide and imidazobenzothiadiazole compounds disrupt Mycobacterium tuberculosis membrane potential” (MedChemComm, 2019).

Series [1] deals with HepG2 cells. Kind of series: HepG2 cytotoxicity (CellTiter-Glo, 72 h). Type of series: cell-based. The note with it: Homo sapiens, mean ± standard deviation, replicates in parentheses. Background: In ATP-based viability assays light output follows the ATP content of the culture.
The test system of another series is M. tuberculosis H37Rv. The series is described as follows: Minimum bactericidal concentration at pH 4.5 (MBC4.5), luminescence readout. Type of series: cell-based, Mycobacterium tuberculosis. To be noted: for MBC: Mycobacterium tuberculosis, H37RV, 168 h.
Series [2] deals with non-replicating M. tuberculosis. The series is described as follows: Non-replicating kill kinetics at pH 5.5 (CFU over 21 days). Type of series: cell-based, Mycobacterium tuberculosis. To be noted: single replicate; for log kill at 14 days: pH 5.5, 14 days; for log kill within 21 days: pH 5.5, 21 days.
The subject of series [3] is M. tuberculosis membrane potential. The series is described as follows: M. tuberculosis membrane potential (DiOC2 red/green fluorescence ratio). Type of series: cell-based, Mycobacterium tuberculosis. The note with it: CCCP positive control.
Series [4] deals with HepG2 cells. Type of series: cell-based, human. The note with it: human, 30 min, pH 7.4. How it is done:
Measurement of membrane potential in HepG2 human liver cells (ATCC) was adapted from the method published by Huang.[40] Cells were plated at a density of 50 000 cells per well (100 μL) in black-walled 96-well plates and incubated overnight. Culture medium was replaced with the same volume of assay buffer (80 mM NaCl, 75 mM KCl, 25 mM D-glucose, 25 mM HEPES pH 7.4) containing test compounds at indicated concentrations; CCCP and DMSO served as controls. Plates were incubated at 37 °C for 30 min, followed by incubation with 4 μM DiOC2 for 20 min at RT. Cells were washed 4 times with 150 μL assay buffer, and suspended in 100 μL of assay buffer. A Synergy H1 microplate reader (BioTek Instruments) was used to measure fluorescence (488 nm/530 nm and 488 nm/620 nm). Each test compound was evaluated in at least two replicate experiments.

In another series the test system is M. tuberculosis. On the set-up: method as in PMID 30501173. To be noted: non-replicating, cited from earlier work.
The test system of series [5] is intracellular M. tuberculosis in RAW 264.7 cells. Kind of series: Activity against intracellular M. tuberculosis in RAW 264.7 cells. Type of series: cell-based, Mycobacterium tuberculosis. To be noted: RAW 264.7 cells (ATCC TIB-71). The text has this: In addition to determination of the MBC4.5 for each compound, we evaluated antitubercular activity of the compounds as measured by MIC at pH 5.6 (Table S1 ^†) and IC50 against intracellular M. tuberculosis in RAW 264.7 cells (ATCC TIB-71) (Table S2 ^†). […] General cytotoxicity against the infected RAW 264.7 cells was observed and was correlated with cytotoxicity against HepG2 cells (Table S2 ^†).

[6] abbreviates: median, pH 4.5 phosphate citrate buffer, 7 days, 2-log reduction threshold, replicates in parentheses.

≈ marks a conversion by molar mass, not a printed value. Some results are limits rather than exact numbers.

Turning to `O=C(Nc1ccc(Cl)cc1)c1ccccc1NS(=O)(=O)c1ccc(Br)cc1` [Compound 3, 2-(4-bromophenylsulfonamido)-N-(4-chlorophenyl)benzamide], the IC50 (as a rule, the midpoint of a concentration-inhibition curve) with HepG2 cells [1] came out at 11 ± 4.7 µM. Also, the MBC (in general, the smallest concentration meeting the test's criterion for killing) with M. tuberculosis H37Rv (setting [6]) was 50 µM (≈ 23.3 µg/mL). In addition, the “log kill within 7 days” value in series [2] (pH 5.5, 7 days) is reported as over 3 log. The “log kill at 14 days” value in series [2] is given as over 4 log.
For the molecule `Cc1ccc(S(=O)(=O)Nc2ccccc2C(=O)Nc2ccc(Cl)cc2Cl)cc1` [Compound 15, N-(2,4-dichlorophenyl)-2-(4-methylphenylsulfonamido)benzamide], the IC50 with HepG2 cells [1] turned out to be 37 ± 8.5 µM. The minimum bactericidal concentration (MBC) in the series on M. tuberculosis H37Rv (setting [6]) is over 200 µM. The “log kill within 21 days” value in series [2] is over 3 logs.
The like results for `O=C(Nc1ccccn1)c1ccccc1NS(=O)(=O)c1ccc(Br)cc1` [Compound 24, 2-(4-bromophenylsulfonamido)-N-(pyridin-2-yl)benzamide] were, in that order, 52 ± 13 µM, 113 µM (≈ 48.8 µg/mL) and over 3 logs.
With `CN(C(=O)c1ccccc1NS(=O)(=O)c1ccc(Br)cc1)c1ccc(Cl)cc1Cl` [Compound 25, 2-(4-bromophenylsulfonamido)-N-(2,4-dichlorophenyl)-N-methylbenzamide], the 50% inhibitory concentration (IC50) in the series with HepG2 cells [1] turned out to be 60 ± 9.9 µM. The “disruption of M. tuberculosis membrane potential at pH 5.6” value in series [3] was “maintained its disruption of M. tuberculosis membrane potential at pH 5.6”. Besides, the “disruption of M. tuberculosis membrane potential at pH 6.8” value in series [3] (pH 6.8) was “showed some capacity to depolarize the membrane, but the effect was at much higher concentrations”. Besides, in the series on M. tuberculosis H37Rv (setting [6]), the MBC was over 200 µM. In addition, the “antitubercular activity (by MBC4.5, in words)” value with M. tuberculosis H37Rv (pH 4.5) was “loss of antitubercular activity”. For the same molecule, the “disruption of HepG2 cell membrane potential” value in the series on HepG2 cells [4] is recorded as “decrease in membrane potential in HepG2 cells comparable in magnitude to CCCP at concentrations significantly below the IC50”.
With `CS(=O)(=O)Nc1ccccc1C(=O)Nc1ccc(Cl)cc1Cl` [Compound 8, N-(2,4-dichlorophenyl)-2-(methylsulfonamido)benzamide], the IC50 in the series with HepG2 cells [1] stood at 78 ± 29 µM. The MBC with M. tuberculosis H37Rv (setting [6]) amounted to 75 µM (≈ 26.9 µg/mL). For the same molecule, in series [2], the “log kill at 14 days” value is given as over 4 log.
As to `O=[N+]([O-])c1cc2nc(C(F)(F)F)[nH]c2c2nsnc12` [Compound 2], the IC50 in the series on HepG2 cells [1] came to 83 ± 24 µM. In the series with M. tuberculosis H37Rv (setting [6]), the MBC stood at 25 µM (≈ 7.23 µg/mL) and the MBC4.5 is given as 25 (2) μM. Besides, the “decrease of CFU in the culture within 7 days” value in the series on M. tuberculosis (pH 4.5 and pH 6.8, 10–100 μM, 7 days) was over 4 logs. In addition, in the series with M. tuberculosis (pH 4.5 and pH 6.8, all concentrations 10–100 μM), the “time to sterilizing the culture” value is recorded as at most 14 days.
Consider `CCN(C)c1ccccc1C(=O)Nc1ccc(Cl)cc1Cl` [Compound 11, N-(2,4-dichlorophenyl)-2-(ethyl(methyl)amino)benzamide], for which, in the series with HepG2 cells [1], the IC50 is 69 ± 44 µM. The “antitubercular activity against intracellular M. tuberculosis” value in series [5] is given as “showed antitubercular activity”. Moreover, in the series on M. tuberculosis H37Rv (setting [6]), the MBC was over 200 µM.
Turning to `NC(=O)c1ccccc1NS(=O)(=O)c1ccc(Br)cc1` [Compound 6, 2-(4-bromophenylsulfonamido)benzamide], in the series on HepG2 cells [1], the IC50 is over 100 µM. Also, the “disruption of M. tuberculosis membrane potential at pH 5.6” value in series [3] was “did not disrupt M. tuberculosis membrane potential”. In the series on M. tuberculosis H37Rv (setting [6]), the MBC was over 200 µM. In addition, the “disruption of HepG2 cell membrane potential” value in the series on HepG2 cells [4] is on record as “did not disrupt membrane potential at concentrations up to 200 μM”.
